Experimental data published in patent publication US8058009B2, “Target protein and target gene in drug designing and screening method” (Reverse Proteomics Research Institute Co., Ltd., priority 2004, dated 2011).
Values belong to the molecule of their own block, whether it stands above or below them.

What was measured:
[1] = biological target: T1, FLJ14797-derived protein (Homo sapiens, UniProt Q9UGJ1); assay: Biacore S51 surface plasmon resonance binding to FLJ14797-derived protein
T1 construct: made in house; host or cells: wheat germ cell-free synthesis system (PROTEIOS, Toyobo)
Experimental: (§1) A desired gene of a human full-length cDNA clone was BP-reacted with the PCR cloning vector Gateway pDONR201 using the Invitrogen Gateway system per the kit protocol to yield an entry vector. […]
(§2) The surface of the CM5 sensor chip for S51 commercially available from Biacore Company was subjected to an NTA treatment with 1 M EDC, 1.33 M NHS and 16 mg/ml AB-NTA (pH 9.2) to prepare an NTA sensor chip for S51. […] A correction for the effect of DMSO contained in the compound solutions and running buffer (solvent correction) was performed on the basis of measured results from separately prepared solutions mimicking the running buffer, and containing 3.8 to 5.1% of DMSO (8 points). The compound characterization assay program for Biacore S51 was performed to measure the interactions between immobilized ligands (proteins) and analytes (compounds; 62.5 μM to 0.244 μM), and the results were analyzed using a dedicated software program. […]

[2] = biological target: T2, FLJ10335-derived protein (Homo sapiens, UniProt Q9NW38, S77P); assay: Biacore S51 surface plasmon resonance binding to FLJ10335-derived protein
T2 construct: made in house; host or cells: wheat germ cell-free synthesis system (PROTEIOS, Toyobo)
T2 sequence (Q9NW38 1-375 S77P): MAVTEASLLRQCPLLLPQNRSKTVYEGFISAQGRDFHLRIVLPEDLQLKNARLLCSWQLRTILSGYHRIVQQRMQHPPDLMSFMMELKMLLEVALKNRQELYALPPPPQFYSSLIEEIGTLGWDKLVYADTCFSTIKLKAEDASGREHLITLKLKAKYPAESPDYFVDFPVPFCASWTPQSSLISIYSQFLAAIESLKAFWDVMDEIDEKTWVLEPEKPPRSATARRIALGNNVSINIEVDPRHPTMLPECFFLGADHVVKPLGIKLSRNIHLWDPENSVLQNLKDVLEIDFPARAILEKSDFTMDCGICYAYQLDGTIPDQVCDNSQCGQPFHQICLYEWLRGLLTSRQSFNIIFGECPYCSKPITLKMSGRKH
Experimental: as §1, §2

[3] = biological target: T3, FLJ14467-derived protein (Homo sapiens, UniProt Q9HB40); assay: Biacore S51 surface plasmon resonance binding to FLJ14467-derived protein
T3 construct: made in house; host or cells: wheat germ cell-free synthesis system (PROTEIOS, Toyobo)
T3 sequence (Q9HB40 27-452): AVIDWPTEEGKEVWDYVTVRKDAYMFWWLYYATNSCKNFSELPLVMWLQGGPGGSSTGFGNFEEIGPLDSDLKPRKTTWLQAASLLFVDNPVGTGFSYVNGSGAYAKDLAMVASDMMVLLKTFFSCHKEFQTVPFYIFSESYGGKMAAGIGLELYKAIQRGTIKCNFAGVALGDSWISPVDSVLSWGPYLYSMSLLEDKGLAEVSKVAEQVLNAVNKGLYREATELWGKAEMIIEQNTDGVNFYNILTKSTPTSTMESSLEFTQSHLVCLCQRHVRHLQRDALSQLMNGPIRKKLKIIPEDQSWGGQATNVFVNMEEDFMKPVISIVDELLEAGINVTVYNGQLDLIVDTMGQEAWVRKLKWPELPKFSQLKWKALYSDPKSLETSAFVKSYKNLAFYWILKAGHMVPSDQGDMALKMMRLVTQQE
Experimental: as §1, §2

[4] = biological target: T4, FLJ11474-derived protein (Homo sapiens, UniProt Q9BVC4); assay: Biacore S51 surface plasmon resonance binding to FLJ11474-derived protein
T4 construct: made in house; host or cells: wheat germ cell-free synthesis system (PROTEIOS, Toyobo)
Experimental: as §1, §2

[5] = biological target: T5, FLJ11045-derived protein (Homo sapiens, UniProt Q9BXT8, E1380K); assay: Biacore S51 surface plasmon resonance binding to FLJ11045-derived protein
T5 construct: made in house; host or cells: wheat germ cell-free synthesis system (PROTEIOS, Toyobo)
T5 sequence (Q9BXT8 949-1581 isoform Q9BXT8-4 E1338K): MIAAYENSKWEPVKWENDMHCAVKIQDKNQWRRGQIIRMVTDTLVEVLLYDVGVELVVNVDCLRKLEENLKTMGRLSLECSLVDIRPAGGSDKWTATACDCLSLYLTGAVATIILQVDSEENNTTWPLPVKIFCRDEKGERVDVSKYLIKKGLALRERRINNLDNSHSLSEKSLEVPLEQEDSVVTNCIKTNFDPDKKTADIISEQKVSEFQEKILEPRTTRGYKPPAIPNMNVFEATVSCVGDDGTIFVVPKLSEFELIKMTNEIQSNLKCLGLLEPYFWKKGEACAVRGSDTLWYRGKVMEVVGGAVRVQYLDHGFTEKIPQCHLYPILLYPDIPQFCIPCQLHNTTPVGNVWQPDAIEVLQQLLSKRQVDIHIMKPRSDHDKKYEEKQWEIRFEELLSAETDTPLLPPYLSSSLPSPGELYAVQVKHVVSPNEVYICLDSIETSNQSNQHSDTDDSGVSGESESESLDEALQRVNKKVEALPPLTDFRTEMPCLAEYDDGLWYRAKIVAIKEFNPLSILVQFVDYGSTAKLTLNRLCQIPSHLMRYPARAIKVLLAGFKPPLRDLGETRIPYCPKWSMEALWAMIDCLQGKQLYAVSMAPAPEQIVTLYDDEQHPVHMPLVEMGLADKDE
Description: A desired gene of a human full-length cDNA clone was BP-reacted with the PCR cloning vector Gateway pDONR201 using the Invitrogen Gateway system per the kit protocol to yield an entry vector. As the destination vector for the Gateway system, a Gateway cassette having a Gateway recombinant sequence was introduced to allow the utilization of the Gateway system on the basis of pEU3-NII (Toyobo), which matches with a cell-free protein synthesis system (PROTEIOS) of Toyobo Co., Ltd., which employs a wheat germ extract, and a double tag destination vector modified using the PCR method to allow the expression of a peptide having a histidine tag and a FLAG tag sequence in the N-terminal region of the expressed protein was prepared.
The prepared double tag destination vector and entry vector were […] using the Invitrogen Gateway system per the protocol and the Escherichia coli competent cell DH5α was transformed therewith; a clone incorporating the expression vector was selected. A plasmid was prepared from the obtained clone using the QIAfilter Midi kit (QUIAGEN) per the kit protocol. The plasmid obtained was subjected to phenol/chloroform treatment per the protocol for PROTEIOS (Toyobo) to inactivate the RNase to yield a purified expression plasmid.
A recombinant protein was synthesized using a cell-free protein synthesis system (PROTEIOS) of Toyobo Co., Ltd., which employs a wheat germ extract. Subsequently, mRNA was prepared from the expression plasmid acquired by the method described in section 1 above per the protocol for PROTEIOS. With 20 μg of the mRNA acquired, a protein was synthesized per the protocol for PROTEIOS using two wells of a 96-well microtiter plate. The protein synthesized was subjected to high-speed centrifugation, the precipitate was removed, and the resulting soluble fraction was purified using ANTI-FLAG M2 Affinity Gel (SIGMA Company) having an anti-FLAG tag antibody immobilized hereto per the protocol, to yield a purified protein.
as §2

[6] = biological target: T6, FLJ31146-derived protein (Homo sapiens, UniProt Q9BSE4); assay: Biacore S51 surface plasmon resonance binding to FLJ31146-derived protein
T6 construct: made in house; host or cells: wheat germ cell-free synthesis system (PROTEIOS, Toyobo)
T6 sequence (Q9BSE4 1-406): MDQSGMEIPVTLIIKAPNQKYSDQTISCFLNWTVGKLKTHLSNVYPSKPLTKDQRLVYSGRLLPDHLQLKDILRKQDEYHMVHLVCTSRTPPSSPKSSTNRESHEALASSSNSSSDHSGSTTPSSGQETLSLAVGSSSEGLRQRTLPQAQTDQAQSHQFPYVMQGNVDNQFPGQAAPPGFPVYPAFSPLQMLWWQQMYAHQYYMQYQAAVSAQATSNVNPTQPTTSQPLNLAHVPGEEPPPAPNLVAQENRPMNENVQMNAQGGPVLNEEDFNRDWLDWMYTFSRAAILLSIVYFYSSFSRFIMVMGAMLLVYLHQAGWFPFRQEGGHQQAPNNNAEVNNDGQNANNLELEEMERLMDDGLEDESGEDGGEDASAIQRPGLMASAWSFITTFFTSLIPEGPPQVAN
Experimental: as §1, §2

T1 sequence (Q9UGJ1 whole entry): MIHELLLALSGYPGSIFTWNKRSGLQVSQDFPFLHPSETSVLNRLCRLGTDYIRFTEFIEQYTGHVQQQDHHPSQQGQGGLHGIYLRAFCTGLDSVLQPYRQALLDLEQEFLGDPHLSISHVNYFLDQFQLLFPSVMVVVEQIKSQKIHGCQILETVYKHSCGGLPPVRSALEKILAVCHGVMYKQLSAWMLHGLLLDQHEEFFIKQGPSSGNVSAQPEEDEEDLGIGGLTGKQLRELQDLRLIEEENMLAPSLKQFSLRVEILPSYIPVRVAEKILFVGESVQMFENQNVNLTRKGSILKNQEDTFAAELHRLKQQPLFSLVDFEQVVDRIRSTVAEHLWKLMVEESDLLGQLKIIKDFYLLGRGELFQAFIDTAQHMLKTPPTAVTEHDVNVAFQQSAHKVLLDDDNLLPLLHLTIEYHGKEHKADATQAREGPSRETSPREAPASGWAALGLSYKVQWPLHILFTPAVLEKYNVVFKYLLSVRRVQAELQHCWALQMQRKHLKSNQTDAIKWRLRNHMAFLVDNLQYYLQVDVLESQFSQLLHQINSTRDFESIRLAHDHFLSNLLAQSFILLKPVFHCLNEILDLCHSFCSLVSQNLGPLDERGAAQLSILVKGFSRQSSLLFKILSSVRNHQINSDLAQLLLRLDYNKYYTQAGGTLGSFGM
T4 sequence (Q9BVC4 1-325 isoform Q9BVC4-5): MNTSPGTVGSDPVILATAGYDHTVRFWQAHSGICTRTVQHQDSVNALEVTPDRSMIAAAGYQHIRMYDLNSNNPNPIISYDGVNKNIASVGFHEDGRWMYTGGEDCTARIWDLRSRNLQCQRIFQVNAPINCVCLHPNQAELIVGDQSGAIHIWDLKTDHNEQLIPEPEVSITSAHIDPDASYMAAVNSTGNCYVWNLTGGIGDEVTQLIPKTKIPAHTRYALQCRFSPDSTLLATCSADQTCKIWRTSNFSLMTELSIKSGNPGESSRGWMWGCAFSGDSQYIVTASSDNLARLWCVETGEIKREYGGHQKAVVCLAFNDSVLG

interaction with the protein (binding level dose-proportional, saturated at high doses) [1]: interact specifically
Structure (SMILES): O=C(c1ccc(F)cc1)C1CCN(CCn2c(=O)[nH]c3ccccc3c2=O)CC1 [ketanserin]

interaction with the protein (binding level dose-proportional, saturated at high doses) [2]: interact specifically
interaction with the protein (binding level dose-proportional, saturated at high doses) [3]: interact specifically
interaction with the protein (binding level dose-proportional, saturated at high doses) [4]: interact specifically
Kd ([5]; Biacore S51, immobilized FLJ11045-derived protein, analyte 62.5 μM to 0.244 μM, read-out: binding dissociation constant Kd): 12.4 µM
interaction with the protein (binding level dose-proportional, saturated at high doses) ([5]; FLJ11045-derived protein, Biacore S51): interact specifically
Structure (SMILES): N[C@@H](C(=O)N[C@@H]1C(=O)N2C(C(=O)O)=C(Cl)CS[C@H]12)c1ccccc1 [cefaclor]

interaction with the protein (binding level dose-proportional, saturated at high doses) [6]: interact specifically
Structure (SMILES): CC1(C)S[C@@H]2[C@H](NC(=O)[C@H](N)c3ccccc3)C(=O)N2[C@H]1C(=O)O [ampicillin]
